# Assay results: PubChem BioAssay (NCI)
#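 In this assay, cells in 96-well plates receive the compound at five concentrations for 48 hours. Endpoints are linearly interpolated between the surrounding concentrations. GI50 = concentration required for 50% inhibition of growth. TGI denotes the concentration required for complete inhibition of growth.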
# How the values were obtained:
# Assay in all cases: growth of human tumour cells (NCI), 48 h
# UO-31 renal = tested on: UO-31 renal
# M14 melanoma = tested on: M14 melanoma
# HT29 colon = tested on: HT29 colon
# SK-MEL-28 melanoma = tested on: SK-MEL-28 melanoma
# MALME-3M melanoma = tested on: MALME-3M melanoma
# UACC-257 melanoma = tested on: UACC-257 melanoma
# HL-60(TB) leukemia = tested on: HL-60(TB) leukemia
# OVCAR-3 ovarian = tested on: OVCAR-3 ovarian
# MDA-MB-435 = tested on: MDA-MB-435
# SW-620 colon = tested on: SW-620 colon
# OVCAR-5 ovarian = tested on: OVCAR-5 ovarian
# HOP-62 NSCLC = tested on: HOP-62 NSCLC
# IGROV1 ovarian = tested on: IGROV1 ovarian
# A498 renal = tested on: A498 renal
# MDA-MB-231 breast = tested on: MDA-MB-231 breast
# ACHN renal = tested on: ACHN renal
# NCI/ADR-RES ovarian = tested on: NCI/ADR-RES ovarian
# NCI-H23 lung = tested on: NCI-H23 lung
# SF-295 CNS = tested on: SF-295 CNS
# SK-OV-3 ovarian = tested on: SK-OV-3 ovarian
# SK-MEL-5 melanoma = tested on: SK-MEL-5 melanoma
# EKVX NSCLC = tested on: EKVX NSCLC
# SNB-19 CNS = tested on: SNB-19 CNS
# OVCAR-4 ovarian = tested on: OVCAR-4 ovarian
# K-562 leukemia = tested on: K-562 leukemia
# SNB-75 CNS = tested on: SNB-75 CNS
# COLO 205 colon = tested on: COLO 205 colon
# NCI-H460 lung = tested on: NCI-H460 lung
# UACC-62 melanoma = tested on: UACC-62 melanoma
# SF-539 CNS = tested on: SF-539 CNS
# KM12 colon = tested on: KM12 colon
# 786-0 renal = tested on: 786-0 renal
# T-47D breast = tested on: T-47D breast
# OVCAR-8 ovarian = tested on: OVCAR-8 ovarian
# LOX IMVI melanoma = tested on: LOX IMVI melanoma
# HS 578T breast = tested on: HS 578T breast
# HOP-92 NSCLC = tested on: HOP-92 NSCLC
# TK-10 renal = tested on: TK-10 renal
# HCT-15 colon = tested on: HCT-15 colon
# BT-549 breast = tested on: BT-549 breast
# SK-MEL-2 melanoma = tested on: SK-MEL-2 melanoma
# MCF7 breast = tested on: MCF7 breast
# RPMI-8226 leukemia = tested on: RPMI-8226 leukemia
# SF-268 CNS = tested on: SF-268 CNS
# PC-3 prostate = tested on: PC-3 prostate
# NCI-H522 lung = tested on: NCI-H522 lung
# HCC-2998 colon = tested on: HCC-2998 colon
# HCT-116 colon = tested on: HCT-116 colon
# CAKI-1 renal = tested on: CAKI-1 renal
# RXF 393 renal = tested on: RXF 393 renal
# A549 NSCLC = tested on: A549 NSCLC
# U251 CNS = tested on: U251 CNS
smiles,measurement,setting,value
CCC1(O)C(=O)OCc2c1cc1n(c2=O)Cc2cc3ccccc3nc2-1 (stereo not drawn),TGI,UO-31 renal,0.156 µM
same,TGI,M14 melanoma,0.0271 µM
same,TGI,HT29 colon,0.394 µM
same,TGI,SK-MEL-28 melanoma,18.4 µM
same,TGI,MALME-3M melanoma,11.8 µM
same,TGI,UACC-257 melanoma,3.57 µM
same,TGI,HL-60(TB) leukemia,0.0659 µM
same,TGI,OVCAR-3 ovarian,2.72 µM
same,TGI,MDA-MB-435,8.35 µM
same,TGI,SW-620 colon,> 41.2 µM
same,TGI,OVCAR-5 ovarian,1.25 µM
same,TGI,HOP-62 NSCLC,0.319 µM
same,TGI,IGROV1 ovarian,5.96 µM
same,TGI,A498 renal,4.15 µM
same,TGI,MDA-MB-231 breast,7.06 µM
same,TGI,ACHN renal,0.519 µM
same,TGI,NCI/ADR-RES ovarian,2.15 µM
same,TGI,NCI-H23 lung,0.0806 µM
same,TGI,SF-295 CNS,0.226 µM
same,TGI,SK-OV-3 ovarian,7.11 µM
same,TGI,SK-MEL-5 melanoma,0.312 µM
same,TGI,EKVX NSCLC,0.488 µM
same,TGI,SNB-19 CNS,0.0667 µM
same,TGI,OVCAR-4 ovarian,> 100 µM
same,TGI,K-562 leukemia,> 100 µM
same,TGI,SNB-75 CNS,0.19 µM
same,TGI,COLO 205 colon,3.55 µM
same,TGI,NCI-H460 lung,10.7 µM
same,TGI,UACC-62 melanoma,0.0379 µM
same,GI50,SF-539 CNS,0.0107 µM
same,TGI,SF-539 CNS,> 100 µM
same,TGI,KM12 colon,> 100 µM
same,TGI,786-0 renal,0.203 µM
same,TGI,T-47D breast,> 33.6 µM
same,TGI,OVCAR-8 ovarian,15.7 µM
same,TGI,LOX IMVI melanoma,1.33 µM
same,TGI,HS 578T breast,> 100 µM
same,TGI,HOP-92 NSCLC,23.9 µM
same,TGI,TK-10 renal,50.5 µM
same,TGI,HCT-15 colon,17.1 µM
same,TGI,BT-549 breast,> 41.4 µM
same,TGI,SK-MEL-2 melanoma,3.52 µM
same,TGI,MCF7 breast,2.06 µM
same,TGI,RPMI-8226 leukemia,1.89 µM
same,TGI,SF-268 CNS,15.2 µM
same,TGI,PC-3 prostate,23.9 µM
same,TGI,NCI-H522 lung,3.89 µM
same,TGI,HCC-2998 colon,11.2 µM
same,TGI,HCT-116 colon,0.614 µM
same,TGI,CAKI-1 renal,> 31.9 µM
same,TGI,RXF 393 renal,0.527 µM
same,TGI,A549 NSCLC,0.334 µM
same,TGI,U251 CNS,0.57 µM
